Experimental data: PubChem BioAssay AID328 (DTP/NCI, 2004)
Where “and” joins values, the source holds several entries; their conditions need not be identical. Equal values may be shown once. Inconclusive results and toxic doses are left out.

System: BDF1 mice, P388 leukemia ip, median survival T/C
Assay: NCI In Vivo Anticancer Drug Screen. Data for tumor model P388 Leukemia (intraperitoneal) in B6D2F1 (BDF1) mice
Conditions: endpoint: median survival time, higher = longer survival
Method in brief: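 Each value expresses how treatment altered survival: treated-mouse outcome over vehicle-mouse outcome, both groups bearing the transplanted tumour.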

[1] = dose: 16.5 mg/kg/injection, schedule: Q01DX009 (ip), vehicle: saline with Tween-80
[2] = dose: 100.0 mg/kg/injection, schedule: Q01DX001 (ip), vehicle: saline
[3] = dose: 200.0 mg/kg/injection, schedule: Q01DX001 (ip), vehicle: saline
[4] = dose: 100.0 mg/kg/injection, schedule: Q01DX009 (ip), vehicle: saline with Tween-80
[5] = dose: 200.0 mg/kg/injection, schedule: Q01DX009 (ip), vehicle: saline with Tween-80
[6] = dose: 100.0 mg/kg/injection, schedule: Q04DX003 (ip), vehicle: saline with Tween-80
[7] = dose: 200.0 mg/kg/injection, schedule: Q04DX003 (ip), vehicle: saline with Tween-80
[8] = dose: 25.0 mg/kg/injection, schedule: Q04DX003 (ip), vehicle: Klucel (hydroxypropylcellulose) (HPC)
[9] = dose: 50.0 mg/kg/injection, schedule: Q04DX003 (ip), vehicle: Klucel (hydroxypropylcellulose) (HPC)
[10] = dose: 100.0 mg/kg/injection, schedule: Q04DX003 (ip), vehicle: Klucel (hydroxypropylcellulose) (HPC)
[11] = dose: 200.0 mg/kg/injection, schedule: Q04DX003 (ip), vehicle: Klucel (hydroxypropylcellulose) (HPC)
[12] = dose: 400.0 mg/kg/injection, schedule: Q04DX003 (ip), vehicle: Klucel (hydroxypropylcellulose) (HPC)
[13] = dose: 50.0 mg/kg/injection, schedule: Q01DX009 (ip), vehicle: saline with Tween-80

In the case of `Cn1cnc([N+](=O)[O-])c1Sc1nc(N)nc2nc[nH]c12`, the T/C (dose: 7.0 mg/kg/injection, schedule: Q01DX009 (ip), vehicle: saline with Tween-80) is reported as 190 % of control, the T/C (dose: 11.0 mg/kg/injection, schedule: Q01DX009 (ip), vehicle: saline with Tween-80) is reported as 190 % of control and the T/C [1] is reported as 96 % of control.

`C[N+](C)(C)c1ncnc2nc[nH]c12` was tested, and the T/C (dose: 15.0 mg/kg/injection, schedule: Q01DX010 (ip), vehicle: saline) was 91 % of control and 100 % of control, the T/C (dose: 30.0 mg/kg/injection, schedule: Q01DX010 (ip), vehicle: saline) was 100 % of control and 104 % of control and the T/C (dose: 60.0 mg/kg/injection, schedule: Q01DX010 (ip), vehicle: saline) was 91 % of control and 100 % of control. For the same molecule, the T/C [2] was 100 % of control, the T/C (dose: 120.0 mg/kg/injection, schedule: Q01DX010 (ip), vehicle: saline) was 91 % of control and 95 % of control and the T/C [3] was 110 % of control.

For `OC1(C2(O)c3ccccc3Oc3ccccc32)c2ccccc2Oc2ccccc21`, the T/C (dose: 50.0 mg/kg/injection, schedule: Q01DX001 (ip), vehicle: saline) was 95 % of control, the T/C [2] was 90 % of control and the T/C [3] was 90 % of control.

For `Cc1ccccc1N=C(N)Nc1ccccc1C`, the T/C (dose: 6.25 mg/kg/injection, schedule: Q04DX003 (ip), vehicle: saline with Tween-80) was 105 % of control, the T/C (dose: 12.5 mg/kg/injection, schedule: Q04DX003 (ip), vehicle: saline with Tween-80) was 94 % of control and the T/C (dose: 25.0 mg/kg/injection, schedule: Q04DX003 (ip), vehicle: saline with Tween-80) was 100 % of control.

For `c1cc[c]([Sn]([c]2ccccc2)([c]2ccccc2)[c]2ccccc2)cc1`, the T/C [4] was 94 % of control, the T/C [5] was 94 % of control and the T/C (dose: 400.0 mg/kg/injection, schedule: Q01DX009 (ip), vehicle: saline with Tween-80) was 97 % of control.

In the case of `CSc1sc2ccccc2[n+]1C`, the T/C (dose: 25.0 mg/kg/injection, schedule: Q01DX009 (ip), vehicle: saline) is reported as 100 % of control and 104 % of control, the T/C (dose: 50.0 mg/kg/injection, schedule: Q01DX009 (ip), vehicle: saline) is reported as 90 % of control and 120 % of control and the T/C (dose: 100.0 mg/kg/injection, schedule: Q01DX009 (ip), vehicle: saline) is reported as 86 % of control and 119 % of control.

In the case of `CC1=C2C(=C(CBr)OS1(=O)=O)C(=O)c1ccccc12`, the T/C [6] is reported as 104 % of control, the T/C [7] is reported as 104 % of control and the T/C (dose: 400.0 mg/kg/injection, schedule: Q04DX003 (ip), vehicle: saline with Tween-80) is reported as 104 % of control.

`CC1=CC(C)(C)NC(=S)N1c1ccccc1` was tested, and the T/C (dose: 75.0 mg/kg/injection, schedule: Q04DX003 (ip), vehicle: Klucel (hydroxypropylcellulose) (HPC)) was 100 % of control, the T/C (dose: 100.0 mg/kg/injection, schedule: Q01DX001 (ip), vehicle: Klucel (hydroxypropylcellulose) (HPC)) was 95 % of control and the T/C (dose: 150.0 mg/kg/injection, schedule: Q04DX003 (ip), vehicle: Klucel (hydroxypropylcellulose) (HPC)) was 100 % of control. The T/C (dose: 200.0 mg/kg/injection, schedule: Q01DX001 (ip), vehicle: Klucel (hydroxypropylcellulose) (HPC)) was 104 % of control, the T/C (dose: 300.0 mg/kg/injection, schedule: Q04DX003 (ip), vehicle: Klucel (hydroxypropylcellulose) (HPC)) was 100 % of control and the T/C (dose: 400.0 mg/kg/injection, schedule: Q01DX001 (ip), vehicle: Klucel (hydroxypropylcellulose) (HPC)) was 109 % of control.

With `NC(=O)c1nnc2cccc(Cl)n12` the T/C (dose: 100.0 mg/kg/injection, schedule: Q01DX001 (ip), vehicle: saline with Tween-80) was 112 % of control, the T/C (dose: 200.0 mg/kg/injection, schedule: Q01DX001 (ip), vehicle: saline with Tween-80) was 103 % of control and the T/C (dose: 400.0 mg/kg/injection, schedule: Q01DX001 (ip), vehicle: saline with Tween-80) was 96 % of control.

For `Cc1cc(C)c(CCl)cc1CCl`, the T/C (dose: 3.0 mg/kg/injection, schedule: Q01DX009 (ip), vehicle: saline with Tween-80) was 104 % of control, the T/C (dose: 4.5 mg/kg/injection, schedule: Q01DX009 (ip), vehicle: saline with Tween-80) was 116 % of control and the T/C (dose: 6.25 mg/kg/injection, schedule: Q01DX009 (ip), vehicle: saline with Tween-80) was 118 % of control. The T/C [1] was 150 % of control and the T/C (dose: 37.5 mg/kg/injection, schedule: Q01DX009 (ip), vehicle: saline with Tween-80) was 120 % of control.

In the case of `Cc1oc(-c2ccccc2)nc1C(C)(O)c1ccccc1` (centres undefined), the T/C (dose: 100.0 mg/kg/injection, schedule: Q04DX002 (ip), vehicle: saline with Tween-80) is reported as 118 % of control, the T/C (dose: 200.0 mg/kg/injection, schedule: Q04DX002 (ip), vehicle: saline with Tween-80) is reported as 103 % of control and the T/C (dose: 400.0 mg/kg/injection, schedule: Q04DX002 (ip), vehicle: saline with Tween-80) is reported as 112 % of control.

For `COc1cccc2c1C(=O)c1c(OC)cccc1C2=O`, the T/C [8] was 98 % of control, the T/C [9] was 97 % of control and the T/C [10] was 103 % of control. The T/C [11] was 98 % of control and the T/C [12] was 97 % of control.

With `CC1=C(Br)C(=O)C(Br)=C(Br)C1=O` the T/C [8] was 104 % of control, the T/C (dose: 35.0 mg/kg/injection, schedule: Q01DX009 (ip), vehicle: Klucel (hydroxypropylcellulose) (HPC)) was 109 % of control and the T/C (dose: 37.5 mg/kg/injection, schedule: Q01DX001 (ip), vehicle: Klucel (hydroxypropylcellulose) (HPC)) was 95 % of control. For the same molecule, the T/C [9] was 100 % of control, the T/C (dose: 55.0 mg/kg/injection, schedule: Q01DX009 (ip), vehicle: Klucel (hydroxypropylcellulose) (HPC)) was 90 % of control and the T/C (dose: 75.0 mg/kg/injection, schedule: Q01DX001 (ip), vehicle: Klucel (hydroxypropylcellulose) (HPC)) was 109 % of control. For the same molecule, the T/C [10] was 90 % of control and the T/C (dose: 150.0 mg/kg/injection, schedule: Q01DX001 (ip), vehicle: Klucel (hydroxypropylcellulose) (HPC)) was 100 % of control.

In the case of `Cc1ccc(-c2nc3ccccc3c(=O)n2/N=C/c2ccc(Cl)cc2Cl)cc1`, the T/C [13] is reported as 100 % of control, the T/C [4] is reported as 89 % of control and the T/C [5] is reported as 90 % of control.

For `CCOC(C)C(/C=N/NC(N)=S)=NNC(N)=S` (centres undefined), the T/C (dose: 25.0 mg/kg/injection, schedule: Q01DX009 (ip), vehicle: Klucel (hydroxypropylcellulose) (HPC)) was 110 % of control, the T/C (dose: 50.0 mg/kg/injection, schedule: Q01DX009 (ip), vehicle: Klucel (hydroxypropylcellulose) (HPC)) was 115 % of control and the T/C [13] was 107 % of control. For the same molecule, the T/C [4] was 96 % of control, the T/C [10] was 109 % of control and the T/C [6] was 86 % of control. For the same molecule, the T/C (dose: 150.0 mg/kg/injection, schedule: Q01DX009 (ip), vehicle: Klucel (hydroxypropylcellulose) (HPC)) was 110 % of control, the T/C (dose: 200.0 mg/kg/injection, schedule: Q01DX009 (ip), vehicle: Klucel (hydroxypropylcellulose) (HPC)) was 122 % of control and the T/C [11] was 100 % of control. The T/C [7] was 91 % of control and the T/C [12] was 104 % of control.

With `CCOC(=O)CSc1c([N+](=O)[O-])c(C)nn1C` the T/C (dose: 3.12 mg/kg/injection, schedule: Q04DX003 (ip), vehicle: water) was 110 % of control, the T/C (dose: 6.25 mg/kg/injection, schedule: Q04DX003 (ip), vehicle: water) was 100 % of control and 106 % of control and the T/C (dose: 12.5 mg/kg/injection, schedule: Q04DX003 (ip), vehicle: water) was 92 % of control and 104 % of control. For the same molecule, the T/C (dose: 25.0 mg/kg/injection, schedule: Q01DX009 (ip), vehicle: water) was 93 % of control, the T/C (dose: 25.0 mg/kg/injection, schedule: Q04DX003 (ip), vehicle: water) was 88 % of control and 100 % of control and the T/C (dose: 50.0 mg/kg/injection, schedule: Q01DX009 (ip), vehicle: water) was 90 % of control. The T/C (dose: 50.0 mg/kg/injection, schedule: Q04DX003 (ip), vehicle: water) was 97 % of control and 100 % of control and 113 % of control, the T/C (dose: 100.0 mg/kg/injection, schedule: Q01DX009 (ip), vehicle: water) was 93 % of control and the T/C (dose: 100.0 mg/kg/injection, schedule: Q04DX003 (ip), vehicle: water) was 101 % of control and 104 % of control. The T/C (dose: 200.0 mg/kg/injection, schedule: Q01DX009 (ip), vehicle: water) was 101 % of control, the T/C (dose: 200.0 mg/kg/injection, schedule: Q04DX003 (ip), vehicle: water) was 109 % of control and the T/C (dose: 400.0 mg/kg/injection, schedule: Q01DX009 (ip), vehicle: water) was 101 % of control. The T/C (dose: 400.0 mg/kg/injection, schedule: Q04DX003 (ip), vehicle: water) was 103 % of control.

For `CC(=O)OCCC/C(=C/c1ccc(/C=C(\CCCOC(C)=O)[N+](=O)[O-])cc1)[N+](=O)[O-]`, the T/C [9] was 96 % of control, the T/C [10] was 101 % of control and the T/C [11] was 101 % of control.
